# Assay results: PMC10579241, “Impact of trifluoromethyl and sulfonyl groups on the biological activity of novel aryl-urea derivatives: synthesis, in-vitro, in-silico and SAR studies” (Scientific Reports, 2023)
# Marks after values point to notes of the source that are not given here.
# Columns and labels:
# HCT116 = test: DNA fragmentation assay, HCT116; assay type: cell-based, human
# prostate cancer (PC3) = test: cells; assay type: cell-based; conditions: Homo sapiens, 48 h
# BRCA1 = test: qRT-PCR, BRCA1 in PC3 cells; assay type: cell-based, human; conditions: versus negative samples
# PACA2 = test: DNA fragmentation assay, PACA2; assay type: cell-based, human
# [1] = tested on: osteosarcoma cell line (HOS); test: cells; assay type: cell-based; conditions: 48 h; for IC50: MTT
# PC3 [2] = test: DNA fragmentation assay, PC3; assay type: cell-based, human
# PC3 [3] = test: DNA damage, comet assay, PC3; assay type: cell-based, human
structure (smiles),measurement,setting,value
"Cc1ccc(S(=O)(=O)NC(=O)Nc2ccc(C(F)(F)F)cc2)cc1 [Compound 7, 4-Methyl-N-[(4-{trifluoromethyl}phenyl)carbamoyl]benzenesulfonamide]",Change (DNA fragmentation versus untreated cells),HCT116,26.20
same,DNA fragmentation % M ± SEM,"HCT116; IC50 concentration, 24 h",37.1 ± 0.52^a %
same,Inhibition,HCT116; doxorubicin = 0.00,24.76
same,mortality at 100 µg/mL,prostate cancer (PC3); 100 μg/mL,100%
same,IC50,prostate cancer (PC3); MTT,91.3 ± 0.28 µM
same,BRCA1 gene expression level,BRCA1,decreased significantly
same,Change (DNA fragmentation versus untreated cells),PACA2,23.10
same,DNA fragmentation % M ± SEM,"PACA2; IC50 concentration, 24 h",35.2 ± 0.68^a %
same,Inhibition,PACA2; doxorubicin = 0.0,28.33
same,mortality at 100 µg/mL,"[1]; Homo sapiens, 100 μg/mL",100%
same,IC50,[1]; Homo sapiens,102 µM
same,IC50,[1],102.1 ± 0.95 µM
same,Change (DNA fragmentation versus untreated cells),PC3 [2],24.5
same,DNA fragmentation % M ± SEM,"PC3 [2]; IC50 concentration, 24 h",36.1 ± 0.60^a %
same,Inhibition,PC3 [2]; doxorubicin = 0.0,21.89
same,DNA damaged cells % (mean ± SEM),PC3 [3],25.78 ± 1.44^a %
same,"Class 0 (no tail), number of cells",PC3 [3]; of 400 cells analyzed,297
same,"Class 1 (tail length < diameter of nucleus), number of cells",PC3 [3]; of 400 cells analyzed,38
same,"Class 2 (tail length between 1 and 2 × the diameter of nucleus), number of cells",PC3 [3]; of 400 cells analyzed,36
same,"Class 3 (tail length > 2 × the diameter of nucleus), number of cells",PC3 [3]; of 400 cells analyzed,29
same,"No. of cells, Comets",PC3 [3]; of 400 cells analyzed,103
